Data reported in patent publication US20240299328A1, “COMPOSITIONS COMPRISING 15-HEPE AND METHODS OF TREATING AND/OR PREVENTING HEMATOLOGIC DISORDERS AND RELATED DISEASES” (Afimmune Limited, priority 2023, published 2024).
Like-named read-outs stand apart in the source and are kept apart here.

Columns and labels:
[1] = system: α-SMA, TIMP-1, TGF-β and Collagen Type 1 mRNA; test: BDL study: quantitative RT-PCR of liver; assay type: in vivo; conditions: BDL mice liver, normalized to 36B4, Day 14, mean ± SD
Method: Quantitative RT-PCR: Total ribonucleic acid (RNA) was extracted from liver samples using RNAiso. One μg of RNA was reverse-transcribed using a reaction mixture containing 4.4 mM magnesium chloride (MgCl2), 40 U RNase inhibitor, 0.5 mM dNTP, 6.28 μM random hexamer, 5× first strand buffer, 10 mM dithiothreitol and 200 U MMLV-RT in a final volume of 20 μL. The reaction was carried out for 1 hour at 37° C., followed by 5 minutes at 99° C. Real-time PCR was performed using real-time PCR DICE and TB Green™ Premix Ex Taq™ II. To calculate the relative mRNA expression level, the expression of each gene (α-SMA, TIMP-1, TGF-β and Collagen Type 1) was normalized to that of reference gene 36B4 (gene symbol: Rplp0). Information regarding the PCR-primer sets and the plate layout are described in Tables 8 and 9.

UUO mice = assay type: in vivo
Method: UUO Surgery: On day 0 of the study, UUO surgery was performed on mice under pentobarbital sodium anesthesia. The mouse's hair was first shaved and then abdomen cut open to exteriorize the mouse's left ureter. The ureter was ligated 4-0 nylon sutures at two points. The mouse's peritoneum and skin were then closed with sutures, and the mouse transferred to a clean cage until recovered from the anesthesia. Sham operated mice had their left ureter exposed but not ligated. […]
Animals: Seven-week-old female C57BL/6 mice (i.e., animals) were obtained and were housed and fed with a normal diet under controlled conditions. The animals were maintained in a specific-pathogen free (SPF) facility under controlled conditions of temperature (e.g., 23±2° C.), humidity (e.g., 45±10%), lighting (e.g., 12-hour artificial light and dark cycles; light from 8:00 to 20:00) and air exchange. A high pressure was maintained in the experimental room to prevent contamination of the facility. The animals were housed in TPX cages with a maximum of 4 mice per cage. Sterilized Paper-Clean was used for bedding and replaced once a week. Sterilized solid normal diet was provided ad libitum, being placed in a metal lid on the top of the cage. Pure water was also provided ad libitum from a water bottle equipped with a rubber stopper and a sipper tube. Water bottles were replaced once a week, cleaned, and sterilized in an autoclave and reused. Mice were identified by ear punch and each cage was labeled with a specific identification code.
Animal Monitoring and Sacrifice: The viability, clinical signs and behavior for the mice were monitored daily. Individual body weight was measured daily before treatment during the treatment period. […] The animals were sacrificed by exsanguination through direct cardiac puncture under isoflurane anesthesia at Day 14.

NAFLD patients = test: Phase IIa study in NAFLD patients: metabolic, glycemic, lipid and liver parameters; assay type: in vivo, human
Method: The study was planned to include 96 evaluable patients with 32 patients randomized per treatment group.
HOMA-IR/Adipo-IR: HOMA-IR/Adipo-IR levels are a method of measuring insulin resistance. HOMA-IR is calculated by multiplying fasting plasma insulin (FPI) by fasting plasma glucose (FPG), then dividing by the constant 405. Adipo-IR is calculated by multiplying fasting non-esterified fatty acids (NEFA)×fasting insulin. Blood samples were taken to assess HOMA-IR and Adipo-IR at Visit 2/Baseline, Visit 3/Week 2, Visit 4/Week 4, Visit 6/Week 8, Visit 8/Week 12, Visit 10/Week 16 and Follow up Visit 11/Week 20. All subjects were required to have been fasted for a minimum of 8 hours prior to blood sampling. If subjects had not fasted for a minimum of 8 hours, the duration of fasting time was recorded, and subjects encouraged to fast appropriately for the next clinical visit.
Liver stiffness and CAP: Liver stiffness and CAP were assessed using transient elastography (e.g., FibroScan® 502 Touch model or equivalent). Patients were fasted and scanned at the same time of the day, if possible, for baseline (Week 0) and Visit 10 (Week 16). For this assessment the following conditions were met: patients were lying in dorsal decubitus position with the right arm in maximal abduction behind the head, in a similar position to that used for liver biopsy (LB); the tip of the transducer was placed on the skin between the ribs over the right lobe of the liver (the physician took the measurements with the probe placed in the intercostal space); during the FibroScan® examination the choice of M+ or XL+ probe was determined by the Automatic Probe Selection tool (APS) (If, the APS tool advises to use the “XL+ probe” or “switch” continuously between “M+ and XL+ probe”, only the XL+ probe was used); and the operator, assisted by an ultrasonic time motion image, located a portion of the liver which is free of large vascular structures (the depth of measurement was between 35-75 mm for the XL+ probe and 25-65 mm for the M+ probe and the explored volume will be 3 cm^3). For each patient, the operator performed an examination including at least 10 valid measurements or a maximum of 20 attempts, with the XL+ or M+ probe, at the same spot. The entire examination lasted no more than 10-15 minutes. The final stiffness and CAP values was recorded as median values of valid measurements.
Clinical Laboratory Safety Tests: Safety tests were performed for hematology, serum biochemistry, coagulation, lipid profile, and urinalysis: Blood and urine samples were taken as per the Study Flow Chart in Table 19 for routine hematology, serum biochemistry, coagulation and urinalysis tests, along with a Lipid Profile. All samples were analyzed in the central laboratory. All subjects were fasted for a minimum of 8 hours prior to blood sampling. If subjects had not fasted for a minimum of 8 hours, the duration of fasting time was recorded, and subjects encouraged to fast appropriately for the next clinical visit. • Hematology: Full blood count to include red cell count, hemoglobin, hematocrit, white cell count, differential white cell count, platelet count and reticulocyte count. • Serum biochemistry: Urea (blood urea nitrogen; BUN), creatinine, uric acid, total bilirubin, Indirect and Direct Bilirubin, sodium, bicarbonate potassium, phosphorus, calcium chloride, alkaline phosphatase (ALP), aspartate aminotransferase (AST), alanine aminotransferase (ALT), ALT/AST ratio, lactate dehydrogenase (LDH), creatine phosphokinase (CPK), albumin, total protein, cholesterol, triglycerides, glucose, C-reactive protein (CRP). • Coagulation: prothrombin time (PT), international normalized ratio (INR) and activated partial […]. • Lipid Profile: LDL, HDL, and VLDL-C. • Urinalysis: pH, protein, glucose, blood, ketones, leukocytes, leukocyte esterase, bilirubin, specific gravity, urobilinogen and nitrate. […]

[2] = 50 mg/kg PO QD Day 0-13, Day 14, mean ± SD
[3] = 500 mg/kg PO QD Day 0-13, Day 14, mean ± SD

Q: For CC/C=C\C[C@H](O)/C=C/C=C\C/C=C\C/C=C\CCCC(=O)OCC [DS102, 15(S)-hydroxy-(5Z,8Z,11Z,13E,17Z)-eicosapentaenoic acid ethyl ester], which “Alpha-SMA mRNA expression level” value ([1]; 50 mg/kg PO QD Day 0-13) is on record?
A: 3.21 ± 1.67

Q: What about the “Collagen Type 1 mRNA expression level” value ([1]; 50 mg/kg PO QD Day 0-13) of the same compound?
A: 4.94 ± 2.76

Q: And the “TGF-β mRNA expression level” value ([1]; 50 mg/kg PO QD Day 0-13)?
A: 1.48 ± 0.48

Q: What about the “TIMP-1 mRNA expression level” value ([1]; 50 mg/kg PO QD Day 0-13) of the same compound?
A: 43.82 ± 26.19

Q: And the “Alpha-SMA mRNA expression level” value ([1]; 250 mg/kg PO QD Day 0-13)?
A: 2.66 ± 1.33

Q: What about the “Collagen Type 1 mRNA expression level” value ([1]; 250 mg/kg PO QD Day 0-13) of the same compound?
A: 4.21 ± 1.90

Q: What about the “TGF-β mRNA expression level” value ([1]; 250 mg/kg PO QD Day 0-13) of the same compound?
A: 1.50 ± 0.44

Q: What about the “TIMP-1 mRNA expression level” value ([1]; 250 mg/kg PO QD Day 0-13) of the same compound?
A: 30.65 ± 16.80

Q: And the “Body Weight” value (UUO mice; [2])?
A: 18.8 ± 0.6 g

Q: And the “Left Kidney Weight” value (UUO mice; [2])?
A: 469 ± 60 mg

Q: And the “Right Kidney Weight” value (UUO mice; [2])?
A: 133 ± 10 mg

Q: What about the “Body Weight” value (UUO mice; [3]) of the same compound?
A: 18.7 ± 0.5 g

Q: And the “Left Kidney Weight” value (UUO mice; [3])?
A: 487 ± 108 mg

Q: And the “Right Kidney Weight” value (UUO mice; [3])?
A: 136 ± 6 mg

Q: And the “hepatic fat content as assessed by CAP” value (NAFLD patients)?
A: reduced

Q: What about the “insulin sensitivity and glycemic control” value (NAFLD patients; 1 g or 2 g per day, 16 weeks) of the same compound?
A: improvement

Q: And the “markers of metabolic overload” value (NAFLD patients; 1 g or 2 g per day, 16 weeks)?
A: statistically significant reduction

Q: And the “insulin resistance indices (HOMA-IR and adipo-IR levels)” value (NAFLD patients; 1 g or 2 g per day, Week 16)?
A: improvement

Q: And the “glycemic control (HbA1c levels)” value (NAFLD patients; 1 g or 2 g per day, baseline to Week 16, dose-dependent)?
A: clinically significant improvements

Q: And the “insulin, glucose, and free fatty acid levels” value (NAFLD patients; 1 g or 2 g per day, baseline to Week 16 vs placebo)?
A: reduction

Q: What about the “alkaline phosphate (ALP)” value (NAFLD patients; 2 g) of the same compound?
A: reduced

Q: And the “Triglycerides (median placebo-corrected % change from baseline)” value (NAFLD patients; 2 g, Week 16, Full Analysis Set)?
A: −40.2%

Q: And the “insulin resistance indices (HOMA-IR and adipo-IR levels)” value (NAFLD patients; 2 g, Week 16, Per Protocol Set (PPS))?
A: significant improvements

Q: What about the “Triglycerides (median placebo-corrected % change from baseline)” value (NAFLD patients; 2 g, Week 16, Subgroup: High Triglycerides (>200 mg/dL)) of the same compound?
A: −20.4%

Q: What about the “Triglycerides (median placebo-corrected % change from baseline)” value (NAFLD patients; 2 g, Week 16, Subgroup: Triglycerides > Upper Limit Normal (>150 mg/dL)) of the same compound?
A: −39.0%

Q: And the “lipid profile (total cholesterol, VLDL-C, non-HDL-C, RLP cholesterol, triglyceride levels)” value (NAFLD patients; Week 16, safety analysis set (SAS))?
A: significantly improved
